Test results reported in the supplement of paper PMC10307832.

How the values were obtained:
Assay in all cases: relative viability (nuclei count vs DMSO), 5 days (fraction); higher = more cells survive
HCC-15 = system: HCC-15
Summary of the method: (§1)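 One day after seeding in 1536-well plates, lung cancer cell lines were dosed by pin tool. Dosing was either single-drug or a fixed anchor-drug dose plus five library-drug doses (not always all listed) in √10 steps. After 5 days, nuclei were stained in one fix-and-stain step and counted on 4× images, and relative viability is the nuclei count of treated wells over that of vehicle wells, given as the median of duplicate plates.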

NCI-H358 = system: NCI-H358
Summary of the method: as §1

NCI-H1792 = system: NCI-H1792
Summary of the method: as §1

NCI-H23 = system: NCI-H23
Summary of the method: as §1

NCI-H1437 = system: NCI-H1437
Summary of the method: as §1

NCI-H1793 = system: NCI-H1793
Summary of the method: as §1

NCI-H1755 = system: NCI-H1755
Summary of the method: as §1

COR-L23 = system: COR-L23
Summary of the method: as §1

NCI-H2342 = system: NCI-H2342
Summary of the method: as §1

PC-14 = system: PC-14
Summary of the method: as §1

NCI-H2347 = system: NCI-H2347
Summary of the method: as §1

201T = system: 201T
Summary of the method: as §1

HCC-366 = system: HCC-366
Summary of the method: as §1

NCI-H1915 = system: NCI-H1915
Summary of the method: as §1

NCI-H2009 = system: NCI-H2009
Summary of the method: as §1

NCI-H1395 = system: NCI-H1395
Summary of the method: as §1

EMC-BAC-2 = system: EMC-BAC-2
Summary of the method: as §1

NCI-H650 = system: NCI-H650
Summary of the method: as §1

NCI-H2023 = system: NCI-H2023
Summary of the method: as §1

COR-L 105 = system: COR-L 105
Summary of the method: as §1

SK-MES-1 = system: SK-MES-1
Summary of the method: as §1

LC-2-ad = system: LC-2-ad
Summary of the method: as §1

Cc1cn(-c2cc(NC(=O)c3ccc(C)c(Nc4nccc(-c5cccnc5)n4)c3)cc(C(F)(F)F)c2)cn1 [Nilotinib] + O=C(c1cc(Cc2n[nH]c(=O)c3ccccc23)ccc1F)N1CCN(C(=O)C2CC2)CC1 [Olaparib] (partner 8 µM)
relative viability (HCC-15; first compound 0.001 µM): 0.612
relative viability (HCC-15; first compound 0.003162 µM): 0.778
relative viability (HCC-15; first compound 0.01 µM): 0.734
relative viability (HCC-15; first compound 0.03162 µM): 0.692
relative viability (HCC-15; first compound 0.1 µM): 0.638
relative viability (NCI-H358; first compound 0.001 µM): 0.546
relative viability (NCI-H358; first compound 0.003162 µM): 0.721
relative viability (NCI-H358; first compound 0.01 µM): 0.813
relative viability (NCI-H358; first compound 0.03162 µM): 0.52
relative viability (NCI-H358; first compound 0.1 µM): 0.539
relative viability (NCI-H1792; first compound 0.001 µM): 0.312
relative viability (NCI-H1792; first compound 0.003162 µM): 0.535
relative viability (NCI-H1792; first compound 0.01 µM): 0.456
relative viability (NCI-H1792; first compound 0.03162 µM): 0.258
relative viability (NCI-H1792; first compound 0.1 µM): 0.319
relative viability (NCI-H23; first compound 0.001 µM): 0.353
relative viability (NCI-H23; first compound 0.003162 µM): 0.302
relative viability (NCI-H23; first compound 0.01 µM): 0.321
relative viability (NCI-H23; first compound 0.03162 µM): 0.295
relative viability (NCI-H23; first compound 0.1 µM): 0.331
relative viability (NCI-H1437; first compound 0.001 µM): 0.603
relative viability (NCI-H1437; first compound 0.003162 µM): 0.687
relative viability (NCI-H1437; first compound 0.01 µM): 0.654
relative viability (NCI-H1437; first compound 0.03162 µM): 0.548
relative viability (NCI-H1437; first compound 0.1 µM): 0.559
relative viability (NCI-H1793; first compound 0.001 µM): 0.863
relative viability (NCI-H1793; first compound 0.003162 µM): 0.822
relative viability (NCI-H1793; first compound 0.01 µM): 1.13
relative viability (NCI-H1793; first compound 0.03162 µM): 0.706
relative viability (NCI-H1793; first compound 0.1 µM): 0.677
relative viability (NCI-H1755; first compound 0.001 µM): 0.839
relative viability (NCI-H1755; first compound 0.003162 µM): 1.02
relative viability (NCI-H1755; first compound 0.01 µM): 0.953
relative viability (NCI-H1755; first compound 0.03162 µM): 0.901
relative viability (NCI-H1755; first compound 0.1 µM): 0.784
relative viability (COR-L23; first compound 0.001 µM): 0.356
relative viability (COR-L23; first compound 0.003162 µM): 0.319
relative viability (COR-L23; first compound 0.01 µM): 0.396
relative viability (COR-L23; first compound 0.03162 µM): 0.306
relative viability (COR-L23; first compound 0.1 µM): 0.288
relative viability (NCI-H2342; first compound 0.001 µM): 0.399
relative viability (NCI-H2342; first compound 0.003162 µM): 0.457
relative viability (NCI-H2342; first compound 0.01 µM): 0.464
relative viability (NCI-H2342; first compound 0.03162 µM): 0.338
relative viability (NCI-H2342; first compound 0.1 µM): 0.418
relative viability (PC-14; first compound 0.001 µM): 0.266
relative viability (PC-14; first compound 0.003162 µM): 0.253
relative viability (PC-14; first compound 0.01 µM): 0.264
relative viability (PC-14; first compound 0.03162 µM): 0.264
relative viability (PC-14; first compound 0.1 µM): 0.339
relative viability (NCI-H2347; first compound 0.001 µM): 0.559
relative viability (NCI-H2347; first compound 0.003162 µM): 0.664
relative viability (NCI-H2347; first compound 0.01 µM): 0.633
relative viability (NCI-H2347; first compound 0.03162 µM): 0.57
relative viability (NCI-H2347; first compound 0.1 µM): 0.493
relative viability (201T; first compound 0.001 µM): 0.843
relative viability (201T; first compound 0.003162 µM): 0.876
relative viability (201T; first compound 0.01 µM): 0.959
relative viability (201T; first compound 0.03162 µM): 0.935
relative viability (201T; first compound 0.1 µM): 0.869
relative viability (HCC-366; first compound 0.001 µM): 0.272
relative viability (HCC-366; first compound 0.003162 µM): 0.327
relative viability (HCC-366; first compound 0.01 µM): 0.339
relative viability (HCC-366; first compound 0.03162 µM): 0.281
relative viability (HCC-366; first compound 0.1 µM): 0.281
relative viability (NCI-H1915; first compound 0.003162 µM): 0.267
relative viability (NCI-H1915; first compound 0.01 µM): 0.244
relative viability (NCI-H1915; first compound 0.03162 µM): 0.255
relative viability (NCI-H1915; first compound 0.1 µM): 0.187
relative viability (NCI-H2009; first compound 0.001 µM): 0.588
relative viability (NCI-H2009; first compound 0.003162 µM): 0.667
relative viability (NCI-H2009; first compound 0.01 µM): 0.621
relative viability (NCI-H2009; first compound 0.03162 µM): 0.599
relative viability (NCI-H2009; first compound 0.1 µM): 0.9
relative viability (NCI-H1395; first compound 0.001 µM): 0.472
relative viability (NCI-H1395; first compound 0.01 µM): 0.473
relative viability (NCI-H1395; first compound 0.03162 µM): 0.493
relative viability (NCI-H1395; first compound 0.1 µM): 0.455
relative viability (EMC-BAC-2; first compound 0.001 µM): 0.43
relative viability (EMC-BAC-2; first compound 0.003162 µM): 0.448
relative viability (EMC-BAC-2; first compound 0.01 µM): 0.49
relative viability (EMC-BAC-2; first compound 0.03162 µM): 0.497
relative viability (EMC-BAC-2; first compound 0.1 µM): 0.521
relative viability (NCI-H650; first compound 0.001 µM): 0.357
relative viability (NCI-H650; first compound 0.003162 µM): 0.432
relative viability (NCI-H650; first compound 0.01 µM): 0.454
relative viability (NCI-H650; first compound 0.03162 µM): 0.36
relative viability (NCI-H650; first compound 0.1 µM): 0.344
relative viability (NCI-H2023; first compound 0.001 µM): 0.429
relative viability (NCI-H2023; first compound 0.003162 µM): 0.486
relative viability (NCI-H2023; first compound 0.01 µM): 0.599
relative viability (NCI-H2023; first compound 0.03162 µM): 0.361
relative viability (NCI-H2023; first compound 0.1 µM): 0.394
relative viability (COR-L 105; first compound 0.001 µM): 0.629
relative viability (COR-L 105; first compound 0.003162 µM): 0.688
relative viability (COR-L 105; first compound 0.01 µM): 0.645
relative viability (COR-L 105; first compound 0.03162 µM): 0.636
relative viability (COR-L 105; first compound 0.1 µM): 1.09
relative viability (SK-MES-1; first compound 0.001 µM): 0.611
relative viability (SK-MES-1; first compound 0.003162 µM): 0.696
relative viability (SK-MES-1; first compound 0.01 µM): 0.778
relative viability (SK-MES-1; first compound 0.03162 µM): 0.573
relative viability (SK-MES-1; first compound 0.1 µM): 0.432
relative viability (LC-2-ad; first compound 0.001 µM): 0.686
relative viability (LC-2-ad; first compound 0.003162 µM): 0.755
relative viability (LC-2-ad; first compound 0.01 µM): 0.689
relative viability (LC-2-ad; first compound 0.03162 µM): 0.874
relative viability (LC-2-ad; first compound 0.1 µM): 0.594
